Each molecule was assayed against T1, rat B1R (bradykinin receptor 1) (Rattus norvegicus, UniProt P97583) (assay: FLIPR Ca2+ assay (Fluo-4) on CHO K1 cells stably transfected with the B1R gene of the rat (rB1R cells): % inhibition at 10 μM / IC50, agonist Des-Arg9-bradykinin). Conditions: CHO-K1, rat B1R.
T1 construct: expressed in transfected cells; host or cells: CHO K1 cells
T1 sequence (P97583 1-337): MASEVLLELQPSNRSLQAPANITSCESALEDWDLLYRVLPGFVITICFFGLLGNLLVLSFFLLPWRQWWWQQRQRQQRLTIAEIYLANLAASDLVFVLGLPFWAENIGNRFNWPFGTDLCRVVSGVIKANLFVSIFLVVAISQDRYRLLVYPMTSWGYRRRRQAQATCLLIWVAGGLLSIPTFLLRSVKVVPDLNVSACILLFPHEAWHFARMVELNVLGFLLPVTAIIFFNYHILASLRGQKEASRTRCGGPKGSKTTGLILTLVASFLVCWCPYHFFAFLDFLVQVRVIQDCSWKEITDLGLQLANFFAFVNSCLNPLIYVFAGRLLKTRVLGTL
Assay type: cell-based
Experimental: The agonistic or antagonistic action of substances can be quantified on the bradykinin receptor 1 (B1R) of the human and rat species with ectopically expressing cell lines (CHO K1 cells) and with the aid of a Ca^2+-sensitive dyestuff (Fluo-4) in a fluorescent imaging plate reader (FLIPR). The figure in % activation is based on the Ca^2+ signal after addition of Lys-Des-Arg^9-bradykinin (0.5 nM) or Des-Arg^9-bradykinin (100 nM). Antagonists lead to a suppression of the Ca^2+ inflow after addition of the agonist. % inhibition compared with the maximum achievable inhibition is stated.
The agonistic or antagonistic action of substances can be determined on the bradykinin receptor 1 (B1R) of the human and rat species with the following assay. In accordance with this assay, the Ca^2+ inflow through the channel is quantified with the aid of a Ca^2+-sensitive dyestuff (type Fluo-4, Molecular Probes Europe BV, Leiden, Holland) in a fluorescent imaging plate reader (FLIPR, Molecular Devices, Sunnyvale, USA).
Chinese hamster ovary cells (CHO K1 cells) transfected stably with the human B1R gene (hB1R cells) or the B1R gene of the rat (rB1R cells) are used. For functional studies, these cells are plated out on black 96-well plates with a clear base (BD Biosciences, Heidelberg, Germany or Greiner, Frickenhausen, Germany) in a density of 20,000-35,000 cells/well. The cells are left overnight at 37° C. and 5% CO2 in culture medium (hB1R cells: Nutrient Mixture Ham's F12, Gibco Invitrogen GmbH, Karlsruhe, Germany or DMEM, Sigma-Aldrich, Taufkirchen, Germany; rB1R cells: D-MEM/F12, Gibco Invitrogen GmbH, Karlsruhe, Germany) with 10 vol. % FBS (foetal bovine serum, Gibco Invitrogen GmbH, Karlsruhe, Germany or PAN Biotech GmbH, Aidenbach, Germany). On the following day, the cells are loaded for 60 min at 37° C. with 2.13 μM Fluo-4 (Molecular Probes Europe BV, Leiden Holland) in HBSS buffer (Hank's buffered saline solution, Gibco Invitrogen GmbH, Karlsruhe, Germany) with 2.5 mM probenecid (Sigma-Aldrich, Taufkirchen, Germany) and 10 mM HEPES (Sigma-Aldrich, Taufkirchen, Germany). The plates are then washed 2× with HBSS buffer, and HBSS buffer which additionally contains 0.1% BSA (bovine serum albumin; Sigma-Aldrich, Taufkirchen, Germany), 5.6 mM glucose and 0.05% gelatine (Merck KGaA, Darmstadt, Germany) is added. After a further incubation of 20 minutes at room temperature, the plates are inserted into the FLIPR for the Ca^2+ measurement. Alternatively, the plates are washed with buffer A (15 mM HEPES, 80 mM NaCl, 5 mM KCl, 1.2 mM CaCl2, 0.7 mM MgSO4, 2 g/l glucose, 2.5 mM probenecid), buffer A is added and the plates are loaded with 2.5 μM Fluo-4 and 0.025% Pluronic F127 (Sigma-Aldrich, Taufkirchen, Germany). Thereafter, the cells are washed 2× with buffer A and incubated for 30 minutes at room temperature with buffer A, which additionally contains 0.05% BSA and 0.05% gelatine, and thereafter inserted into the FLIPR for the Ca^2+ measurement. The Ca^2+-dependent fluorescence is measured here before and after addition of substances (λex=488 nm, λem=540 nm). Quantification is by measurement of the highest fluorescence intensity (FC, fluorescence counts) over time.
The FLIPR protocol consists of 2 additions of substance. Test substances (10 μM) are first pipetted on to the cells and the Ca^2+ inflow is compared with the control (hB1R: Lys-Des-Arg^9-bradykinin>=50 nM; rB1R: Des-Arg^9-bradykinin 10 μM). This gives the result in % activation based on the Ca^2+ signal after addition of Lys-Des-Arg^9-bradykinin (>=50 nM) or Des-Arg^9-bradykinin (10 μM). After incubation for 10-20 minutes, Lys-Des-Arg^9-bradykinin (hB1R) or Des-Arg^9-bradykinin (rB1R) in the concentration of the EC80 is applied and the inflow of Ca^2+ is likewise determined. Antagonists lead to a suppression of the Ca^2+ inflow. % inhibition compared with the maximum achievable inhibition is calculated.
For determination of the IC50 value, the substances are added in various concentrations. […]

Molecule | inhibition at 10 µM
O=C(NC1CCc2ccc(C(=O)N3CCC4(CCN(Cc5ccc6nccnc6c5)CC4)CC3)cc21)c1cc(C(F)(F)F)ccc1Cl (stereo not shown) [IND_CC-696, 2-Chloro-N-[6-[9-(quinoxalin-6-yl-methyl)-3,9-diazaspiro[5.5]undecane-3-carbonyl]-2,3-dihydro-1H-inden-1-yl]-5-(trifluoromethyl)-benzamide] | 102%
O=C(NC1CCc2ccc(C(=O)N3CCC4(CCN(Cc5c(F)cccc5Cl)CC4)C3)cc21)c1ccccc1Cl (stereo not shown) [IND_CC-557, 2-Chloro-N-[6-[8-[(2-chloro-6-fluoro-phenyl)-methyl]-2,8-diazaspiro[4.5]decane-2-carbonyl]-2,3-dihydro-1H-inden-1-yl]-benzamide] | 103%
O=C(NC1CCc2ccc(C(=O)N3CCC4(CCN(CC5CCCCC5)CC4)C3)cc21)c1cc(C(F)(F)F)ccc1Cl (stereo not shown) [IND_CC-689, 2-Chloro-N-[6-[8-(cyclohexyl-methyl)-2,8-diazaspiro[4.5]decane-2-carbonyl]-2,3-dihydro-1H-inden-1-yl]-5-(trifluoromethyl)-benzamide] | 55%
CC(C)(C)CC(=O)NC1CCc2ccc(C(=O)N3CCC4(CCN(c5ccncc5)CC4)C3)cc21 (stereo not shown) [IND_CC-374, 3,3-Dimethyl-N-[6-(8-pyridin-4-yl-2,8-diazaspiro[4.5]decane-2-carbonyl)-2,3-dihydro-1H-inden-1-yl]-butyramide] | 103%
O=C(NC1CCc2ccc(C(=O)N3CCC4(CCN(Cc5ccc6ncccc6c5)CC4)C3)cc21)c1cc(Cl)ccc1F (stereo not shown) [IND_CC-671, 5-Chloro-2-fluoro-N-[6-[8-(quinolin-6-yl-methyl)-2,8-diazaspiro[4.5]decane-2-carbonyl]-2,3-dihydro-1H-inden-1-yl]-benzamide] | 80%
Cc1ccc(C(=O)NC2CCc3ccc(C(=O)N4CCC5(CC4)CCN(c4ccncc4)C5)cc32)c(F)c1 (stereo not shown) [IND_CC-306, 2-Fluoro-4-methyl-N-[6-(2-pyridin-4-yl-2,8-diazaspiro[4.5]decane-8-carbonyl)-2,3-dihydro-1H-inden-1-yl]-benzamide] | 106%
CC1(C)Cc2ccc(C(=O)N3CCC4(CC3)CCN(c3ccncc3)CC4)cc2C1NS(=O)(=O)c1ccc(Cl)cc1Cl (stereo not shown) [IND_CC-334, 2,4-Dichloro-N-[2,2-dimethyl-6-(9-pyridin-4-yl-3,9-diazaspiro[5.5]undecane-3-carbonyl)-1,3-dihydro-inden-1-yl]-benzenesulfonic acid amide] | 90%
O=C(NC1CCc2ccc(C(=O)N3CCC4(CCN(Cc5ccc6nccnc6c5)CC4)C3)cc21)c1cc(C(F)(F)F)ccc1Cl (stereo not shown) [IND_CC-685, 2-Chloro-N-[6-[8-(quinoxalin-6-yl-methyl)-2,8-diazaspiro[4.5]decane-2-carbonyl]-2,3-dihydro-1H-inden-1-yl]-5-(trifluoromethyl)-benzamide] | 68%
O=C(NC1CCc2ccc(C(=O)N3CCC4(CCN(Cc5ccc6nccnc6c5)CC4)CC3)cc21)c1cccc(Cl)c1Cl (stereo not shown) [IND_CC-755, 2,3-Dichloro-N-[6-[9-(quinoxalin-6-yl-methyl)-3,9-diazaspiro[5.5]undecane-3-carbonyl]-2,3-dihydro-1H-inden-1-yl]-benzamide] | 92%
CCCC(=O)N(C)C1CCc2ccc(C(=O)N3CCC4(CC3)CCN(c3ccncc3)CC4)cc21 (stereo not shown) [IND_CC-410, N-Methyl-N-[6-(9-pyridin-4-yl-3,9-diazaspiro[5.5]undecane-3-carbonyl)-2,3-dihydro-1H-inden-1-yl]-butyramide] | 97%
O=C(NC1CCc2ccc(C(=O)N3CCC4(CCN(Cc5ccc[nH]5)CC4)CC3)cc21)c1cc(Cl)ccc1F (stereo not shown) [IND_CC-624, 5-Chloro-2-fluoro-N-[6-[9-(1H-pyrrol-2-yl-methyl)-3,9-diazaspiro[5.5]undecane-3-carbonyl]-2,3-dihydro-1H-inden-1-yl]-benzamide] | 62%
COc1cccc(F)c1CN1CCC2(CC1)CCN(C(=O)c1ccc3c(c1)C(NC(=O)c1ccccc1Cl)CC3)CC2 (stereo not shown) [IND_CC-517, 2-Chloro-N-[6-[9-[(2-fluoro-6-methoxy-phenyl)-methyl]-3,9-diazaspiro[5.5]undecane-3-carbonyl]-2,3-dihydro-1H-inden-1-yl]-benzamide] | 90%
O=C(NC1CCc2ccc(C(=O)N3CCC4(CCN(CCCc5ccc(F)cc5)CC4)CC3)cc21)c1cc(C(F)(F)F)ccc1Cl (stereo not shown) [IND_CC-703, 2-Chloro-N-[6-[9-[3-(4-fluorophenyl)-propyl]-3,9-diazaspiro[5.5]undecane-3-carbonyl]-2,3-dihydro-1H-inden-1-yl]-5-(trifluoromethyl)-benzamide] | 70%
Cc1cccc(Cl)c1C(=O)NC1CCc2ccc(C(=O)N3CCC4(CCN(Cc5ccc(F)cc5Cl)CC4)C3)cc21 (stereo not shown) [IND_CC-734, 2-Chloro-N-[6-[8-[(2-chloro-4-fluoro-phenyl)-methyl]-2,8-diazaspiro-[4.5]decane-2-carbonyl]-2,3-dihydro-1H-inden-1-yl]-6-methyl-benzamide] | 95%
O=C(NCc1ccccc1)N1CCC2(CC1)CCN(C(=O)c1ccc3c(c1)C(N(C(=O)c1ccccc1Cl)C1CC1)CC3)C2 (stereo not shown) [IND_CC-716, N-Benzyl-2-[3-[(2-chloro-benzoyl)-cyclopropyl-amino]-2,3-dihydro-1H-indene-5-carbonyl]-2,8-diazaspiro[4.5]decane-8-carboxylic acid amide] | 80%
CC1(C)Cc2ccc(C(=O)N3CCC4(CC3)CCN(c3ccncc3)CC4)cc2C1NS(=O)(=O)c1cccc(C(F)(F)F)c1 (stereo not shown) [IND_CC-341, N-[2,2-Dimethyl-6-(9-pyridin-4-yl-3,9-diazaspiro[5.5]undecane-3-carbonyl)-1,3-dihydro-inden-1-yl]-3-(trifluoromethyl)-benzenesulfonic acid amide] | 87%
CC1(C)CC(NS(=O)(=O)c2ccc(C(F)(F)F)cc2Cl)c2cc(C(=O)N3CCC4(CC3)CCN(c3ccncc3)CC4)ccc21 (stereo not shown) [IND_CC-331, 2-Chloro-N-[3,3-dimethyl-6-(3-pyridin-4-yl-3,9-diazaspiro[5.5]undecane-9-carbonyl)-1,2-dihydro-inden-1-yl]-4-(trifluoromethyl)-benzenesulfonic acid amide] | 94%

Same assay, conditions: rat B1R

Molecule | % Inhibition (rat B1R) at 10 μM
5-Chloro-2-fluoro-N-[6-[8-[3-(3-fluorophenyl)-propyl]-2,8-diazaspiro[4.5]decane-2-carbonyl]-2,3-dihydro-1H-inden-1-yl]-benzamide [IND_CC-674] | 67%
2-Chloro-N-[6-[9-[(1-methyl-1H-benzotriazol-5-yl)-methyl]-3,9-diazaspiro[5.5]-undecane-3-carbonyl]-2,3-dihydro-1H-inden-1-yl]-5-(trifluoromethyl)-benzamide [IND_CC-697] | 98%

— US8455475B2 (Gruenenthal GmbH, priority 2009, dated 2013)
